Tests used:
Human recombinant PKCη = target: T1, Human recombinant PKCη (Homo sapiens, UniProt P24723); experiment: Protein Kinase Cη Assay; type: biochemical; conditions: 10 μM 33P-ATP
T1 construct: purchased PanVera
Description: (§1) The compounds of the invention are tested for their activity on different PKC isoforms according to the following method. Assay is performed in a white with clear bottom 384-well microtiterplate with non-binding surface. The reaction mixture (25 μl) contains 1.5 μM of a tridecapeptide acceptor substrate that mimics the pseudo substrate sequence of PKC α with the Ala→Ser replacement, 10 μM ^33P-ATP, 10 mM Mg(NO3)2, 0.2 mM CaCl2, […] at a protein concentration varying from 25 to 400 ng/ml (depending on the isotype used), lipid vesicles (containing 30 mol % phosphatidylserine, 5 mol % DAG and 65 mol % phosphatidylcholine) at a final lipid concentration of 0.5 mM, in 20 mM Tris-HCl buffer pH 7.4+0.1% BSA. Incubation is performed for 60 min at room temperature.
Human recombinant PKCη is obtained from PanVera and is used under the assay conditions as described under Section A.1 above.

Human recombinant PKCε = target: T2, Human recombinant PKCε (Homo sapiens, UniProt Q02156); experiment: Protein Kinase Cε Assay; type: biochemical; conditions: 10 μM 33P-ATP
T2 construct: purchased Oxford Biomedical Research
T2 sequence (Q02156 1-737): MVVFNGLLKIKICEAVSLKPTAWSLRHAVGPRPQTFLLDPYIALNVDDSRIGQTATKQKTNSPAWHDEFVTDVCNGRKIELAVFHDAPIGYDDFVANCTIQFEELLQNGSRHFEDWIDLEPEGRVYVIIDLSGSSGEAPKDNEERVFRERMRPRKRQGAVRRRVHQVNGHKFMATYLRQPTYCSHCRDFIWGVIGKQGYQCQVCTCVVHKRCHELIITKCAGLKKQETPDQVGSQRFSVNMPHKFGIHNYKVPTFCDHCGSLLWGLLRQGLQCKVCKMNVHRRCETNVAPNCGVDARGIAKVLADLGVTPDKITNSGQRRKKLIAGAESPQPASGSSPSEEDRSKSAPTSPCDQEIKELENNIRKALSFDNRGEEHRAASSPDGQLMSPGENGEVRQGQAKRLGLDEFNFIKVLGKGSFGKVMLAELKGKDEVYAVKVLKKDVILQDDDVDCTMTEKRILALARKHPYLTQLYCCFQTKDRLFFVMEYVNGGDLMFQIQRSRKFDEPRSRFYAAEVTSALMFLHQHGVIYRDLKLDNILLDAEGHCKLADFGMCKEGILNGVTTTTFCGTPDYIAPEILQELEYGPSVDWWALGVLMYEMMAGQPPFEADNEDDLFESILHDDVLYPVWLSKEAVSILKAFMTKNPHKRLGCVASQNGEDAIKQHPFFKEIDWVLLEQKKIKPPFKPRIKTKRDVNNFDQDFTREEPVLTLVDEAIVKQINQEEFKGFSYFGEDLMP
Description: as §1
Human recombinant PKCε is obtained from Oxford Biomedical Research and is used under the assay conditions as described under Section A.1 above.

Human recombinant PKCθ = Human recombinant PKCθ (Homo sapiens, UniProt Q04759); experiment: Protein Kinase Cθ Assay; type: biochemical; conditions: 10 μM 33P-ATP
Description: as §1
Human recombinant PKCθ is used under the assay conditions as described above.

Human recombinant PKCδ = target: T3, Human recombinant PKCδ (Homo sapiens, UniProt Q05655); experiment: Protein Kinase Cδ Assay; type: biochemical; conditions: 10 μM 33P-ATP
T3 construct: purchased Oxford Biomedical Research
Description: as §1
Human recombinant PKCδ is obtained from Oxford Biomedical Research and is used under the assay conditions as described under Section A.1 above.

Human recombinant PKCα = target: T4, Human recombinant PKCα (Homo sapiens, UniProt P17252); experiment: Protein Kinase Cα Assay; type: biochemical; conditions: 10 μM 33P-ATP
T4 construct: purchased Oxford Biomedical Research
Description: as §1
Human recombinant PKCα is obtained from Oxford Biomedical Research and is used under the assay conditions as described under Section A.1 above.

Human recombinant PKCβ1 = target: T5, Human recombinant PKCβ1 (Homo sapiens, UniProt P05771); experiment: Protein Kinase Cβ1 Assay; type: biochemical; conditions: human recombinant PKCβ1, 10 μM 33P-ATP
T5 construct: purchased Oxford Biomedical Research
Description: as §1
Human recombinant PKCβ1 is obtained from Oxford Biomedical Research and is used under the assay conditions as described under Section A.1 above.

[1] = system: Jurkat cells transfected with a human interleukin-2 promoter/reporter gene construct; experiment: CD28 Costimulation Assay; type: cell-based; conditions: IL-2 promoter luciferase reporter, 5.5 hours, read-out: IC50, inhibition of anti-T cell receptor/anti-CD28 and PMA/ionomycin stimulated Jurkat cells
Description: The assay is performed with Jurkat cells transfected with a human interleukin-2 promoter/reporter gene construct as described by Baumann G et al. in Transplant. Proc. 1992; 24:43-8, the β-galactosidase reporter gene being replaced by the luciferase gene (de Wet J., et al., Mol. Cell. Biol. 1987, 7(2), 725-737). Cells are stimulated by solid phase-coupled antibodies or phorbol myristate acetate (PMA) and the Ca^++ ionophore ionomycin as follows. For antibody-mediated stimulation Microlite TM1 microtiter plates (Dynatech) are coated with 3 μg/ml goat anti-mouse IgG Fc antibodies (Jackson) in 55 μl phosphate-buffered saline (PBS) per well for three hours at RT. Plates are blocked after removing the antibodies by incubation with 2% bovine serum albumin (BSA) in PBS (300 μl per well) for 2 hours at RT. […] After incubation for 5.5 hours at 37° C. in 5% CO2, the level of luciferase is determined by bioluminescence measurement. […] Luciferase activity is assessed with a bioluminescence reader (Labsystem, Helsinki, Finland) after automatic addition of 50 μl per well luciferase reaction buffer containing 20 mM Tricine, 1.07 mM (MgCO3)4Mg(OH)2×5H2O, 2.67 mM MgSO4, 0.1 mM EDTA, 33.3 mM DTT, 270 μM coenzyme A, 470 μM luciferin (Chemie Brunschwig AG), 530 μM ATP, pH 7.8. […] The inhibition obtained in the presence of a test compound is calculated as percent inhibition of the high control.

[2] = system: spleen cells from CBA and BALB/c mice; experiment: Allogeneic Mixed Lymphocyte Reaction (MLR); type: cell-based; conditions: CBA and BALB/c mouse spleen cells, 3H-thymidine incorporation after four days, read-out: IC50, inhibition of proliferation in two-way MLR
Description: Briefly, spleen cells from CBA and BALB/c mice (1.6×10^5 cells from each strain per well in flat bottom tissue culture microtiter plates, 3.2×10^5 in total) are incubated in RPMI medium containing 10% FCS, 100 U/ml penicillin, 100 μg/ml streptomycin (Gibco BRL, Basel, Switzerland), 50 μM 2-mercaptoethanol (Fluka, Buchs, Switzerland) and serially diluted compounds. Seven three-fold dilution steps in duplicates per test compound are performed. After four days of incubation 1 μCi ^3H-thymidine is added. Cells are harvested after an additional five-hour incubation period, and incorporated ^3H-thymidine is determined according to standard procedures. Background values (low control) of the MLR are the proliferation of BALB/c cells alone. Low controls are subtracted from all values. High controls without any sample are taken as 100% proliferation.

Chain of Human recombinant PKCθ (Q04759 whole entry): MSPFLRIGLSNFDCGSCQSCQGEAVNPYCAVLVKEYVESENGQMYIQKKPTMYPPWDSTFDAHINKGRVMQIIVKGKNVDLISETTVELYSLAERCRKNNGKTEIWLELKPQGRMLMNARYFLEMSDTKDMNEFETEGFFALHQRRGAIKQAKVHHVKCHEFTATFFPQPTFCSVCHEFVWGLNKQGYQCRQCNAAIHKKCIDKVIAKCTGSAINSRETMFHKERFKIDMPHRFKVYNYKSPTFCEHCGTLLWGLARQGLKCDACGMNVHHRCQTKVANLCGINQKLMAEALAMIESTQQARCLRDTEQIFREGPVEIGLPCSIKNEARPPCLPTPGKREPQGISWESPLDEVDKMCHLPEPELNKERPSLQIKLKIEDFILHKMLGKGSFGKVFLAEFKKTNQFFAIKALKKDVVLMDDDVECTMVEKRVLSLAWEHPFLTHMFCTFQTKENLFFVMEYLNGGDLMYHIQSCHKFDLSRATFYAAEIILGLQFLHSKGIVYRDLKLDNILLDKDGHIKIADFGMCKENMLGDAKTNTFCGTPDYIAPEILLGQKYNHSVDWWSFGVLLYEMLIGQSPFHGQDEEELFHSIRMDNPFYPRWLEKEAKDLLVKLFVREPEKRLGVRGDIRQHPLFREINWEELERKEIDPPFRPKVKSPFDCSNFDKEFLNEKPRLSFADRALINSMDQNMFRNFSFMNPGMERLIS
T5 sequence (P05771 whole entry): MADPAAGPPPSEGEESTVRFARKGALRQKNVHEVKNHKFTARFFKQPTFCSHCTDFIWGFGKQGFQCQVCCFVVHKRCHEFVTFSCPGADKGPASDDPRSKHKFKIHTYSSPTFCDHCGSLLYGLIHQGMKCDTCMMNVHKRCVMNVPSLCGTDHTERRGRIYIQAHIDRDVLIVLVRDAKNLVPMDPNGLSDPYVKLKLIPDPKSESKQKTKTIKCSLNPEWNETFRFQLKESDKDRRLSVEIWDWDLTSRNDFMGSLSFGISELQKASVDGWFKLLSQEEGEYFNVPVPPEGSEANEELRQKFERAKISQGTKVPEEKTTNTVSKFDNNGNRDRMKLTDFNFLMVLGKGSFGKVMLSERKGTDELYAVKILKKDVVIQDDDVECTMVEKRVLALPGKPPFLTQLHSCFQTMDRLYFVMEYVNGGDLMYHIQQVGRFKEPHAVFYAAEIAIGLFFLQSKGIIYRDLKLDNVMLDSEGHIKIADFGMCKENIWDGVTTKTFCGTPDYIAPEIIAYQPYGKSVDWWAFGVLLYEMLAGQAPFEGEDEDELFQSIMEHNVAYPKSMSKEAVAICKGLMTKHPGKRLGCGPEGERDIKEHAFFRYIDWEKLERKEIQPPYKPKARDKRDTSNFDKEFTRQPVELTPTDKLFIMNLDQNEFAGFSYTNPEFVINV
T3 sequence (Q05655 whole entry): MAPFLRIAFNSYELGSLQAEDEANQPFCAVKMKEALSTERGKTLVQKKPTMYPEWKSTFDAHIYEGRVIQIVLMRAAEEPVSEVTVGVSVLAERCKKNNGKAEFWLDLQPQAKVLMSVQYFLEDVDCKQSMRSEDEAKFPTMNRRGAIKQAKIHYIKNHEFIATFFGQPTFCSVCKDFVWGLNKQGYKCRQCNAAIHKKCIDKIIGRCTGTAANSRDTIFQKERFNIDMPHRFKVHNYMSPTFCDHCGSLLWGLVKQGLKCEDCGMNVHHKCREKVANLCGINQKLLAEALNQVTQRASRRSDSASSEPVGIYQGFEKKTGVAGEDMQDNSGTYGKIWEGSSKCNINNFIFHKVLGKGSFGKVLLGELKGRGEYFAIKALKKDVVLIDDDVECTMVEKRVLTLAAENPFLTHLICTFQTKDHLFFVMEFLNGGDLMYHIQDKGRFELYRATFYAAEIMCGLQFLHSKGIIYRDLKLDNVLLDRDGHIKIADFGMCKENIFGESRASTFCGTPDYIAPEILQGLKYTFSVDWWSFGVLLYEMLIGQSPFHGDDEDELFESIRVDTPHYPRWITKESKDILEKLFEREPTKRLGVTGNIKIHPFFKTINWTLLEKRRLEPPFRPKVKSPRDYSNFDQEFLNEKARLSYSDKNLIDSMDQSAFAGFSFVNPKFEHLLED
T1 sequence (P24723 whole entry): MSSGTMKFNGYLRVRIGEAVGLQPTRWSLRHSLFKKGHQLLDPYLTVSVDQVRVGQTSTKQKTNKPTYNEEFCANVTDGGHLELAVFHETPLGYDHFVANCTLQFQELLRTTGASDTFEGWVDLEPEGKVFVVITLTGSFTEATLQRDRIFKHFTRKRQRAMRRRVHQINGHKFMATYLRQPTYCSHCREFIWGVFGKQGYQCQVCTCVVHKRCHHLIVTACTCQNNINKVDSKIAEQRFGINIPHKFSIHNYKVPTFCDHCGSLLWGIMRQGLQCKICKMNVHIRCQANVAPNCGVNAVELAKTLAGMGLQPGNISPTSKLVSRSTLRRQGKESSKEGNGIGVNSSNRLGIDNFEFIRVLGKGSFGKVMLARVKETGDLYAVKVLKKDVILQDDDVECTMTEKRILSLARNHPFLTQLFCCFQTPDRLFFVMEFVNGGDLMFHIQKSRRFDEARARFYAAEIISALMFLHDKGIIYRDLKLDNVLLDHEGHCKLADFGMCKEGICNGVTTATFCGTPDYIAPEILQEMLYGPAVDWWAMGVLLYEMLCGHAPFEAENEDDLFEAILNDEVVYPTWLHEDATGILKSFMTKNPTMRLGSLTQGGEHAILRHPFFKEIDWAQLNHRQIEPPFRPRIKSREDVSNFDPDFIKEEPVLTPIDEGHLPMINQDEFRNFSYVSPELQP

Row | SMILES | IC50 (Human recombinant PKCη) [nM] | IC50 (Human recombinant PKCε) [nM] | IC50 (Human recombinant PKCθ) [nM] | IC50 (Human recombinant PKCδ) [nM] | IC50 (Human recombinant PKCα) [nM] | IC50 (Human recombinant PKCβ1) [nM] | IC50 [1] [nM] | IC50 [2] [nM]
1 | Cc1cccc2c(C3=C(c4cccc5cc(CN)ccc45)C(=O)NC3=O)c[nH]c12 [example 3] | 53.9 | – | – | – | – | – | – | –
2 | CN(C)Cc1ccc2c(C3=C(c4cn(C)c5ccccc45)C(=O)NC3=O)c(Cl)ccc2c1 [example 1, 3-(2-Chloro-6-dimethylaminomethyl-naphthalen-1-yl)-4-(1-methyl-1H-indol-3-yl)-pyrrole-2,5-dione] | – | 17.6 | 19.2 | – | – | – | – | –

The next lines start with results.

Row | IC50 (Human recombinant PKCη) [nM] | IC50 (Human recombinant PKCε) [nM] | IC50 (Human recombinant PKCθ) [nM] | IC50 (Human recombinant PKCδ) [nM] | IC50 (Human recombinant PKCα) [nM] | IC50 (Human recombinant PKCβ1) [nM] | IC50 [1] [nM] | SMILES | IC50 [2] [nM]
3 | 7.2 | – | – | 9.4 | – | – | – | CN(C)Cc1ccc2c(C3=C(c4c[nH]c5ccccc45)C(=O)NC3=O)c(Cl)ccc2c1 [example 4] | –
4 | – | 2.3 | – | – | 1.1 | – | – | CNCc1ccc2c(C3=C(c4c[nH]c5ccccc45)C(=O)NC3=O)c(Cl)ccc2c1 [example 6] | –
5 | – | – | – | 4.5 | 0.9 | 2.3 | 11.5 | Cc1cccc2c(C3=C(c4c(Cl)ccc5cc(CN(C)C)ccc45)C(=O)NC3=O)c[nH]c12 [example 5] | 183
6 | – | – | 6.4 | – | – | 2.8 | 27.5 | CNCc1ccc2c(C3=C(c4c[nH]c5c(C)cccc45)C(=O)NC3=O)c(Cl)ccc2c1 [example 7] | 528

— US7691861B2, “Indolymaleimide derivatives” (Novartis AG, priority 2004, dated 2010)
